Experimental data: patent US20250197952A1, “TRANSGENIC SOYBEAN EVENT GM_CSM63717 AND COMPOSITIONS AND METHODS FOR DETECTION AND USES THEREOF” (Monsanto Technology LLC, priority 2023, published 2025)

Experiments:
[1] = test system: Cas12a gRNA target sites on Glycine max A3335 chromosome 13; assay: gRNA/LbCas12a target site editing in stably transformed soybean plants (AmpSeq); assay type: in vivo; conditions: plants with target site edits / plants examined x 100
Excerpt: CRISPR Cas12a-based cleavage of DNA sequences requires the use of gRNAs that can target specific sequences (target sites) comprising a Cas12a-recognizable protospacer adjacent motif (PAM) sequence so as to facilitate Cas12a enzymatic activity and DNA cleavage. The 10 cM window was scanned for the presence of the LbCas12a-preferred PAM (TTTV, where “V” is A, C, or G) that were unique in the genome (i.e., that only occur once in the genome). This set was additionally filtered so as to identify gRNA target sites that were more than 2 kb from a coding region, more than 1 kb from a small RNA hotspot, and comprised 700 nucleotides (nt) of unique sequence on either side. A suite of genomic target sites was identified from this analysis and 12 were chosen for testing based on additional factors like GC content, and absence of potential off-targets. PAM sites are italicized and shown in bold. The corresponding 23 bp gRNA spacer (SP) sequences are also identified and represented by SEQ ID NOs:223-234.
Three Agrobacterium T-DNA vectors were designed to evaluate gRNA and LbCas12a nuclease mediated cleavage at the selected target sites. Each T-DNA vector contained 3 cassettes between the left and right borders on the T-DNA: an aadA selection marker cassette, an LbCas12a Cas12a cassette, and a multiplexed gRNA cassette. The aadA and LbCas12a cassettes were common across the three vectors. The aadA expression cassette contained the aadA gene (also known as Tn7 adenylyltransferase (AAD(3″)) from E. coli under the control of a constitutive promoter, and targeted the aadA protein to the chloroplast for selection of transgenic events resistant to spectinomycin and streptomycin. The LbCas12a cassette comprised a plant codon optimized LbCas12a (SEQ ID NO:236) flanked by the same nuclear localization signal sequence (NLS) at the 5′ and 3′ ends (SEQ ID NO:235) and a 3′UTR sequence (SEQ ID NO:237) derived from a Medicago truncatula gene. The gene cassette comprising NLS-Cas12aLbCas12a-NLS sequence was fused 3′ to an ATGGCG sequence and operably linked to a chimeric promoter sequence (SEQ ID NO:238) comprising an enhancer region from the Banana Streak Virus (Strain Acuminata Vietnam) and promoter with the 5′ UTR region from the Dahlia mosaic virus.
The guide RNA cassette in vector pG947 comprised a Glycine max Pol III promoter operably linked to a transcribable sequence comprising in order a DR sequence (SEQ ID NO:239), spacer SP10 (SEQ ID NO:232), DR (SEQ ID NO: 239), spacer SP11 (SEQ ID NO:233), DR (SEQ ID NO: 239), spacer SP2 (SEQ ID NO:224), DR (SEQ ID NO: 239), spacer SP12 (SEQ ID NO:234), DR and a poly (T)7 terminator. The guide RNA cassette in vector pG949 comprised a Glycine max Pol III promoter operably linked to a transcribable sequence comprising in order a DR sequence (SEQ ID NO:239), spacer SP9 (SEQ ID NO:231), DR (SEQ ID NO: 239), spacer SP7 (SEQ ID NO:229), DR (SEQ ID NO: 239), spacer SP1 (SEQ ID NO:223), DR (SEQ ID NO: 239), spacer SP5 (SEQ ID NO:227), DR (SEQ ID NO: 239) and a poly (T)7 terminator. The guide RNA cassette in vector pG950 comprised a Glycine max Pal III promoter operably linked to a transcribable sequence comprising in order a DR sequence (SEQ II) NO:239), spacer SP3 (SEQ ID NO:225), DR (SEQ ID NO: 239), spacer SP6 (SEQ ID NO:228), DR (SEQ ID NO: 239), spacer SP4 (SEQ ID NO:226), DR (SEQ ID NO: 239), spacer P8 (SEQ ID NO:230), DR and a poly (T)7 terminator.
The three plant transformation vectors were introduced into soybean seed-derived embryo explants through Agrobacterium-mediated transformation using methods known in the art. Transformed plants were selected on spectinomycin. Genomic DNA was extracted from leaf samples harvested from regenerated plantlets. Each targeted region was amplified by PCR. […]

[2] = test system: wild-type control in the same transformation germplasm; assay: Controlled environment PPO herbicide tolerance trial, wild-type control; assay type: in vivo, Glycine max; conditions: 1× rate, sprayed at V3 stage, greenhouse, rated 11 days after herbicide applications
Procedure: (§1) An efficacy trial was conducted in the controlled environment to evaluate tolerance of event Gm_CSM63717 to various PPO herbicides. The experiment included the lead event (Gm_CSM63717) and a wild-type control in the same transformation germplasm, and consisted of nine individual PPO herbicide treatments, all at 1× rates. These included butafenacil, flumioxazin, fomesafen, lactofen, pyroflufen, saflufenacil, Voraxor (trifludimoxazin and salflufenacil), sulfentrazone, cyclopropylmethyl (2-{2-chloro-4-fluoro-5-[3-methyl-2,6-dioxo-4-(trifluoromethyl)-3,6-dihydropyrimidin-1(2H)-yl]phenoxy}phenoxy)acetate, and an untreated control. The herbicide formulations contained 1% (v/v) Crop Oil Concentrate (COC, Prime Oil, Winfield Solutions, LLC, P. O. Box 64589, St. Paul, MN 55164-0589) for sulfentrazone, fomesafen, lactofen, or 1% (v/v) methylated seed oil (Destiny® HC, Winfield Solutions, LLC, P. O. Box 64589, St. Paul, MN 55164-0589) for flumioxazin, saflufenacil, Voraxor, pyroflufen, butafenacil, and cyclopropylmethyl (2-{2-chloro-4-fluoro-5-[3-methyl-2,6-dioxo-4-(trifluoromethyl)-3,6-dihydropyrimidin-1(2H)-yl]phenoxy}phenoxy)acetate. There were 10 replications per treatment. The plants were grown under standard greenhouse conditions, and were sprayed with each herbicide at V3 stage, and were visually rated for herbicide injury 11 days after herbicide applications.

[3] = test system: soybean event Gm_CSM63717; assay: Controlled environment PPO herbicide tolerance trial, event Gm_CSM63717; assay type: in vivo, Glycine max; conditions: 1× rate, sprayed at V3 stage, greenhouse, rated 11 days after herbicide applications
Procedure: as §1

| Compound | Target Editing Rate (%) [1] [%] | Injury (%) WT Control [2] [%] | Injury (%) Gm_CSM63717 [3] [%] |
| --- | --- | --- | --- |
| GmTS1: LbCas12a gRNA for target site GmTS1 (SEQ ID NO:211), spacer SP1 (SEQ ID NO:223) (guide CAAACATCACATGGCCGGATAAG; expressed or natural sequence) | 2.4 | – | – |
| Cn1c(C(F)(F)F)cc(=O)n(-c2cc(Oc3ccccc3OCC(=O)OCC3CC3)c(Cl)cc2F)c1=O [cyclopropylmethyl (2-{2-chloro-4-fluoro-5-[3-methyl-2,6-dioxo-4-(trifluoromethyl)-3,6-dihydropyrimidin-1(2H)-yl]phenoxy}phenoxy)acetate] | – | 89 | 0 |
| GmTS6: LbCas12a gRNA for target site GmTS6 (SEQ ID NO:216), spacer SP6 (SEQ ID NO:228) (guide CATGCTGTCATCATCTGTTCACT; expressed or natural sequence) | 17.9 | – | – |
| GmTS5: LbCas12a gRNA for target site GmTS5 (SEQ ID NO:215), spacer SP5 (SEQ ID NO:227) (guide CTAAATCGCATAGCTTGTGTGTT; expressed or natural sequence) | 14.3 | – | – |
| GmTS10: LbCas12a gRNA for target site GmTS10 (SEQ ID NO:220), spacer SP10 (SEQ ID NO:232) (guide ATCAAAGCTAAAGCATAAGCATC; expressed or natural sequence) | 45.1 | – | – |
| GmTS12: LbCas12a gRNA for target site GmTS12 (SEQ ID NO:222), spacer SP12 (SEQ ID NO:234) (guide GACATATATGCTATATCATTCTC; expressed or natural sequence) | 72 | – | – |
| GmTS11: LbCas12a gRNA for target site GmTS11 (SEQ ID NO:221), spacer SP11 (SEQ ID NO:233) (guide GCTCGCTATATATATGTGTCACA; expressed or natural sequence) | 48.8 | – | – |
| GmTS2: LbCas12a gRNA for target site GmTS2 (SEQ ID NO:212), spacer SP2 (SEQ ID NO:224) (guide CTTCCTGAGGAAATTTGGTTTCA; expressed or natural sequence) | 7.3 | – | – |
| GmTS4: LbCas12a gRNA for target site GmTS4 (SEQ ID NO:214), spacer SP4 (SEQ ID NO:226) (guide CCTTGATTTGGATTAACCCGCCA; expressed or natural sequence) | 8.3 | – | – |
| GmTS9: LbCas12a gRNA for target site GmTS9 (SEQ ID NO:219), spacer SP9 (SEQ ID NO:231) (guide CGGAGTAGCAGAGAGGAGATTCG; expressed or natural sequence) | 36.9 | – | – |
| GmTS3: LbCas12a gRNA for target site GmTS3 (SEQ ID NO:213), spacer SP3 (SEQ ID NO:225) (guide GCAAGATCCGCTGCCTGCTTGAG; expressed or natural sequence) | 8.3 | – | – |
| GmTS7: LbCas12a gRNA for target site GmTS7 (SEQ ID NO:217), spacer SP7 (SEQ ID NO:229) (guide CCTATATCTGTTTCAGTGATTGC; expressed or natural sequence) | 23.8 | – | – |
